According to publication PMC12261321, “Inhibitors of the Bacterioferritin Ferredoxin Complex Dysregulate Iron Homeostasis and Kill and Biofilm-Embedded Cells” (ACS Infectious Diseases, 2025):
Entries after “also recorded” stand apart in the source; their conditions may differ.

Experiments:
Format in all cases: cell-based
P. aeruginosa PAO1 = experiment: Pyoverdin secreted by P. aeruginosa PAO1 (fluorescence); conditions: planktonic cells, 24 h; KM-5–25 80 μM, KM-5–35 60 μM, EB-5–73 40 μM, SB-17–140 80 μM
Protocol: Dete rmination of pyoverdin secreted by P. aeruginosa PA O 1 . These experiments were conducted as previously reported13 with some modifications. Cells were cultured in modified M63 media (2 g / L ( N H 4)2SO4, 13.6 g/L KH2PO4 (Sigma Aldrich), 2 g/L glucose, 4 g/L cit ric acid, 5 g/ L technical grade casamino acids (B D scientific), 0.24 g/L MgSO4 (Alfa A esar), and 0.025% (w/v) HPMC, pH 7.0 adjusted with KOH) . Starter cultures in LB were diluted to OD600 = 0.0001 and cultured in a sh aker i ncubator (35 °C and 205 rpm) for 24 h, in the absen ce ( control) and in the presence of KM -5- 25 (80 μM), KM-5- 35 (60 μM), EB- 5- 73 (40 μM), and SB-17- 140 (80 μM); al l cell suspensions have 1.5% DMSO. 700 μ L of the culture wer e clarified by centrifugation (16,200 x g, 10 min, 4 °C), diluted 10-fold in PBS and then analyzed by acquiring fluorescence emission spectra (410- 600 nm) with excitation at 400 nm (10 nm slit width) and emission at λ max= 430 nm (10 nm slit width) using an Ag ilent (Cary Eclipse) fluorescen ce sp ectrophotometer. The flu orescen ce intensity of th e treated sample (FI)Tr and that of the untreated control (FI)Un was normalized to the corresponding OD600 and the ratio (FI/OD600)Tr / (F I/ OD600)Un is […]
The determination for each of the compounds was carri ed out in 5 biological replicates. […]

A. baumannii 5075 [1] = experiment: Siderophores secreted by A. baumannii (CAS assay); conditions: 5075, 20 h, M63 without citrate; compounds 40 μM, SB-17–140 80 μM
Protocol: Unlike pyoverdine, the siderophores secreted by are not fluorescent. Consequently, to measure siderophore secretion from planktonic cultures of , we decided to utilize the Chrome azurol S (CAS) assay, a well-known universal colorimetric method used to detect siderophores. , To this end, planktonic cells of 5075 were cultured for 20 h in the presence of sub-MICs of a representative number of inhibitors in M63 media not containing citrate, followed by analysis of the cell-free spent media by the CAS assay. […] These observations support the hypothesis that active compounds engage their target (Ab Bfr) and block the Ab Bfr–Bfd complex in , trapping iron in Ab Bfr and causing intracellular iron limitation, which in turn elicits a siderophore overproduction phenotype. […]
reported13 with some modifications. Cells were cultured in modified M63 media (2 g / L ( N H 4)2SO4, 13.6 g/L KH2PO4 (Sigma Aldrich), 2 g/L glucose, 4 g/L cit ric acid, 5 g/ L technical grade casamino acids (B D scientific), 0.24 g/L MgSO4 (Alfa A esar), and 0.025% (w/v) HPMC, pH 7.0 adjusted with KOH) . […]
Determination of Siderophores Secreted by A. baumannii . The chromo azurol S (CAS) solution was prepared as previously reported18 with some modifications. The blue dye solution (0.6 g/L CAS ( ACROS Organics), 100 μM FeCl3·6H2O, and 0.73 g/L hexadecyltrimethylammonium bromide (HDTMA, ACROS Organics) was autoclaved and stored in the dark. The MM9-PIPES buffer solution (3 g/L KH2PO4, 5 g/L NaCl, 10 g/L NH4C l, 32.24 g/L piperazine -1,4-bis-2- ethanesulfonic acid (PIPES , Sigma Aldrich), pH 6.75) was sterilized using a 0.22 µm syringe filter (VWR). Prior to every experimen t, blue dye solution (0.5 mL) was mixed with 4.5 mL of MM9-PIPES solution. An overnight culture of A. baumannii 5075 was diluted to OD600 = 0.0001 with modified M63 media (no citric acid) supplemented with 4 μ M Fe and transferred to a 96-well plate, wh ere it was cul tured for 20 […]
h at 35 °C and 205 cpm i n a plate reader (Synergy H1, BioTek). The treated cell cultures contained compound at the concentrations indicat ed in the caption of Figure 8B and […], whereas the untreated control contained 0.1% DMSO. 700 μ L was centrifuged at 16,200 x g for 10 min. 200 μ L of the clarified supern atant was mixed with the 200 μL of CAS solution and allowed to incubate at room temperatu re in the dark for 2 h prior to recording a UV-Vis spectrum (200 nm to 800 nm) in a 1.0 cm quartz cuvette with the aid of a Cary 60 UV-Vi s spectrophotometer (Agilent Technologies). The fold- change in siderophore secreted by the treated vs. untreated cells was calculated using equation S3, where Tr indicates treated cells, Un indicates DMSO control cells, […]
solution of fresh modified M63 media. The experiment was carried out in at least five biological replicates for […]
FFggFFFF cch aammggaa =(ΔΔAA 630 )UUii (S3)
Measurement of Dissociation Constant (Kd) R ecombinant Pa BfrB was expressed in E. coli and purified as previously reported.19 Apo-BfrB (devoid of heme) was utilized for the measurements to prevent heme-driven fluorescence quenching. A 0.5 mL solution contai ning 0.01 µM apo Pa-BfrB in PBS (pH = 7.4) containing0.5% DMSO was plac ed into a 1 cm quartz cuvette wh ere it was titrated with aliq uots of compound dissolved in a 50% (v/v) PBS/DMSO solution. The fluorescence quenching brought by the addition of each aliquot was monitored with the aid of an Agilent Cary Fluorometer , with excitation at 280 nm, emission at 320- 470 nm, 10 x10 nm slit width, and an average of 5 scans per spectrum. Th e binding assay included at least 8 aliquots spanning from ~ 0.1 […]
A control titration was carried out by titrati ng compound into PBS buffer. The Kd was cal culated by fitting the data to equation S4, w here Fb is the fraction bound and Fmax is the fraction bound at saturating compound concentration.
FFbb = FFmmmmmm ? [ccccmmccccccmmcc ]? (S4) […]

A. baumannii 5075 [2] = experiment: Compound intracellular accumulation in A. baumannii 5075; conditions: ‡ treatment with 15 µM compound

| Compound | pyoverdine secretion, (FI/OD600)Tr/(FI/OD600)Un (P. aeruginosa PAO1) | siderophore secretion, ΔA 630 nm normalized to OD600 (A. baumannii 5075 [1]) | Intracell. Accum, A. baumannii 5075 (A. baumannii 5075 [2]) |
| --- | --- | --- | --- |
| O=C1NC(=O)c2c(NCc3cccc(Br)c3O)cccc21 [EB-5-73] | did not secrete more pyoverdine than the untreated control cultures; also recorded: secrete the same amount of pyoverdine as the untreated control | do not elicit a siderophore overproduction phenotype |  |
| O=C1NC(=O)c2c(NCc3c(O)cccc3Cl)cccc21 [KM-5-29] |  | secrete significantly higher levels of siderophore |  |
| O=C1NC(=O)c2c(NCc3cc(Br)ccc3O)cccc21 [KM-5-35, 4-((5-Bromo-2-hydroxybenzyl)amino)isoindoline-1,3-dione] | overproduction of pyoverdine; also recorded: pyoverdine overproduction phenotype | secrete significantly higher levels of siderophore |  |
| Cc1cc(Br)cc(CNc2cccc3c2C(=O)NC3=O)c1O [SB-16-106] |  |  | 782 ± 11 nmol/1012 CFU |
| O=C1NC(=O)c2c(NCc3cc(Cl)ccc3O)cccc21 [KM-5-25, 4-((5-Chloro-2-hydroxybenzyl)amino)isoindoline-1,3-dione] | overproduction of pyoverdine; also recorded: pyoverdine overproduction phenotype | secrete significantly higher levels of siderophore |  |
| CC(C)(C)c1ccc(O)c(CNc2cccc3c2C(=O)NC3=O)c1 [SB-16-53] |  |  | 327 ± 17 nmol/1012 CFU |
| Cc1cc(Cl)cc(CNc2cccc3c2C(=O)NC3=O)c1O [SB-16-156] |  |  | 671 ± 89 nmol/1012 CFU |
| O=C1NC(=O)c2c(NCc3cc(Cl)ccc3O)ccc(Br)c21 [SB-16-51] |  |  | 2137 ± 311 nmol/1012 CFU |
| O=C1NC(=O)c2c(NCc3cccc4c3CCN4)cccc21 [SB-17-140] | did not secrete more pyoverdine than the untreated control cultures; also recorded: secrete the same amount of pyoverdine as the untreated control | do not elicit a siderophore overproduction phenotype |  |
| O=C1NC(=O)c2c(NCc3ccc(Br)cc3O)cccc21 [EB-5-61] |  | secrete significantly higher levels of siderophore |  |
| O=C1NC(=O)c2c(NCc3cc(Br)ccc3O)ccc(Cl)c21 [SB-16-124] |  |  | 2626 ± 389 nmol/1012 CFU |
